From patent US20220023273A1, “METHODS FOR TREATING SYMPTOMS AND DISORDERS ASSOCIATED WITH LYSOSOMAL STORAGE DISEASES” (GENZYME CORPORATION, priority 2019, published 2022)
Where “and” joins values, the source holds several entries; their conditions need not be identical. Equal entries are not always repeated.

Legend:
Format in all cases: in vivo, human
[1] = system: glucosylceramide (GL-1), glucosylsphingosine (lyso-GL1); experiment: GD3 clinical study: CSF and plasma biomarkers GL-1 and lyso-GL1; details: GD3, 15 mg/day oral + imiglucerase
Experimental: During the study patients were evaluated for safety and tolerability, CSF and plasma biomarkers (glucosylceramide, GL-1; glucosylsphingosine, lyso-GL1), pharmacokinetics, markers for systemic disease (spleen and liver volume measured by magnetic resonance imaging (MRI), platelet count, hemoglobin levels), indicia of interstitial lung disease (high resolution pulmonary computed tomography (CT)), and horizontal saccadic eye movement.
At baseline, the mean (±SD) GL-1 concentration in CSF was 7.1±2.8 ng/mL (range 4.4-11.1 ng/mL), while the mean (±SD) lyso-GL-1 concentration in CSF was 39.3±22.9 pg/mL (range 20.1-67.6 pg/mL). For comparison, the healthy GL-1 concentration in CSF is 4.5-5.9 ng/mL, and the healthy level of lyso-GL-1 in CSF is less than 5.0 pg/mL.

[2] = system: chitotriosidase (CHITO), GM3, GPNMB, ceramide; experiment: GD3 clinical study: exploratory biomarkers; details: GD3, 15 mg/day oral + imiglucerase
Experimental: Four exploratory biomarkers were quantified in plasma, serum and/or CSF of GD3 patients at week 4 and week 26: chitotriosidase (CHITO; an enzyme known to be elevated in GD patients) was measured in CSF and serum; GM3 (a glycosphingolipid marker known to be elevated in GD patients) was measured in CSF and plasma; and glycoprotein nonmetastatic melanoma protein B (GPNMB; reportedly a biomarker of neuropathic GD3) was measured in CSF. The results are shown in the table below as percent change from baseline at week 4 and week 26 for each parameter:
In addition, exploratory biomarkers were quantified in CSF of GD3 patients: ceramide (the precursor of GL-1), chitotriosidase (CHITO), GM3, and GPNMB.

[3] = system: adult patients with Gaucher disease Type 3; experiment: GD3 clinical study: Scale for Assessment and Rating of Ataxia (SARA)
Experimental: The degree of ataxia at baseline and throughout the study was evaluated by the Scale for Assessment and Rating of Ataxia (SARA; Schmitz-Hubsch et al. [2006]), which assesses eight distinct attributes of cerebellar ataxia on a scale of 0-40. The eight attributes are gait, stance, sitting, speech disturbance, finger chase, nose-finger test, fast alternate hand movement, and heel-shin slide. SARA ataxia scoring results for all six patients is presented in the chart below: […]

[4] = system: adult patients with Gaucher disease Type 3; experiment: GD3 clinical study: trail making test (TMT); details: GD3, 15 mg/day oral + imiglucerase
Description: The trail making test (TMT) was used to evaluate cognitive function in the patients. The TMT is one of the most widely used neuropsychological tests and is included in most test batteries. The TMT is a diagnostic tool to assess general intelligence and cognitive dysfunctions (Tombaugh et al. [2004]; Cavaco et al. [2013]). In part A of the TMT, subjects are asked to connect a cluster of numbers in ascending order. This task is a combination of visual search and general visual and motor processing speed. Part B presents a sequence which alternates between numbers and letters. Subjects must actively switch between both categories when connecting them in ascending, but alternating order.
TMT-A evaluates mainly perceptual and psychomotor speed. TMT-B assesses more specifically mental flexibility and shifting abilities. TMT B minus TMT A score is used to remove the variance attributable to the graphomotor and visual scanning components of TMT A. This derived score reflects the unique task requirements of TMT B.

[5] = system: adult patients with Gaucher disease Type 3; experiment: GD3 clinical study: resting-state fMRI connectivity; details: Patient 5 likely non-compliant, GD3, 15 mg/day oral + imiglucerase
Experimental: Neurological function—was further evaluated using functional magnetic resonance imaging (fMRI). Patient 2 was excluded because no fMRI data was collected at the Week 52 session. Resting-state fMRI screening sessions were performed at baseline screening, Week 26, and Week 52 visits. Connectivity estimates from four subjects (Patients 1, 3, 4 and 5) were entered into second-level analyses as a “compliant” group. Patient 5 was isolated due to likely non-compliance with study medication, as described above. Analyses were performed as described elsewhere (Smith et al. [2009]).
Spatial analysis of the connectivity between different anatomic regions of the brain is performed to define a correlation coefficient for regressed voxelwise mean intensity.

[6] = Phase 1 Study 1 Part 1: ascending single-dose pharmacokinetics; details: healthy men, fasted
Description: (§1) Study 1 was a 2-part single-center trial in healthy adult male volunteers.
Part 1 of the study enrolled and randomized 55 healthy men (placebo, n=14; 2-, 5-, 15, 25-, 50, and 100-mg doses, n=6 each; 150-mg dose, n=5). Eight healthy men participated in Part 2.
(§2) After a 7-day washout period, participants were crossed over to the other condition.

[7] = Phase 1 Study 1 Part 2: PK with and without a high-fat meal; details: healthy men, single oral 5 mg, fed vs fasting
Description: as §1, §2

[8] = system: plasma GL-3; experiment: Fabry: matched comparison with historical phase 3 trial of agalsidase beta; details: Fabry males, 15 mg/day oral
Description: Mean ages were similar across the three groups.

CC(C)(NC(=O)O[C@@H]1CN2CCC1CC2)c1csc(-c2ccc(F)cc2)n1 [Compound 2, (S)-quinuclidin-3-yl (2-(2-(4-fluorophenyl)thiazol-4-yl)propan-2-yl)carbamate]
plasma and CSF biomarkers for GD-3 ([1]; 26 weeks): significant improvements | plasma and CSF biomarkers for GD-3 ([1]; 52 weeks): sustained significant improvements | GM3 in CSF ([2]; 4, 26 and 52 weeks, the four of six patients with measurable GM3 at baseline): undetectable | CSF concentrations of ceramide, CHITO or GPNMB ([2]; after 52 weeks): no significant changes | patients showing improvements in ataxia ([3]; 52 weeks, GD3, 15 mg/day oral + imiglucerase): 5 of 6 | SARA stance score, Patient 4 ([3]; Week 52 (baseline 1), knee pain and toe injury at exam): 5 | patients exhibiting an improvement in ataxia, excluding Patient 5 ([3]; Week 52, GD3, 15 mg/day oral + imiglucerase): 4 out of 5 | TMT-A-TMT-B ([4]; Week 52, individual patients 1-6): 20 s | patients with a TMT-A reduction, excluding Patient 5 ([4]; Week 52): four of five | patients with a TMT-B reduction, excluding Patient 5 ([4]; Week 52): five of five | patients with a reduction in the (TMT B-TMT A) time ([4]; Week 52): 5 of 6 | patients with an improvement in Trail B minus Trial A, excluding Patient 5 ([4]; Week 52): four of five | patients with reduction in time taken to complete Trail A ([4]; Week 52): Four of six | patients with reduction in time taken to complete Trail B ([4]; Week 52): six of six | TMT-A-TMT-B, Change (%) from Baseline to Week 52 ([4]; individual patients 1-6): −72% and −43% | connectivity between the default mode (resting) network and the executive function network [5]: increased in Patients 1, 3, 4 and 6, but decreased in Patient 5 | CL/F, Geometric mean ([6]; single oral 2 mg): 6.3 L/h | CL/F, Geometric mean ([6]; single oral 5 mg): 5.8 L/h | CL/F, Geometric mean ([6]; single oral 15 mg): 5.6 L/h | CL/F, Geometric mean ([6]; single oral 25 mg): 5.0 L/h | CL/F, Geometric mean ([6]; single oral 50 mg): 5.5 L/h | CL/F, Geometric mean ([6]; single oral 100 mg): 5.3 L/h | CL/F, Geometric mean ([6]; single oral 150 mg): 5.6 L/h | CL/F, Mean ([6]; single oral 150 mg): 5.80 L/h | effect of a high-fat meal on Compound 2 exposure [7]: no effect | reduction in plasma GL-3 ([8]; 26 weeks, matched comparison to placebo (−1.06 μg/mL, P<0.0001)): -3.62 µg/mL | plasma GL-3 reduction compared to agalsidase beta ([8]; 104 weeks (p=0.0351) and 156 weeks (p=0.0081)): significantly greater
